Test results published in ChEMBL document CHEMBL3639075, “Aryl-benzocycloalkyl amide derivatives” (2013).

Tests used:
[1] = molecular target: T1, B1 bradykinin receptor (Homo sapiens, UniProt P46663); test: Calcium Mobilization Assay: Calcium mobilization assay using Bradykinin-1 receptor.; type: functional
T1 sequence (P46663 whole entry): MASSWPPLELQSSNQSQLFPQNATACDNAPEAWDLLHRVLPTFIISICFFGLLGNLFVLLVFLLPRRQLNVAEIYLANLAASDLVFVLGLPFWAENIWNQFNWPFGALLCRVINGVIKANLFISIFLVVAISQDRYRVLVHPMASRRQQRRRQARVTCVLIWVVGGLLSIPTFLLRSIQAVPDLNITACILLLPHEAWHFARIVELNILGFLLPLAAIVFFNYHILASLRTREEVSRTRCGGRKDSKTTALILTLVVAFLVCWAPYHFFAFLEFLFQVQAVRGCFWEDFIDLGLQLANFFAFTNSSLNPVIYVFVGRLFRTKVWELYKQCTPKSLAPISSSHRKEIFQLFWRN

[2] = molecular target: T1, B1 bradykinin receptor; test: Binding Assay: Binding assay using Bradykinin-1 receptor.

- IC50 [1]: 3.4 nM
- Ki [2]: 9.5 nM
Structure (SMILES): Cc1nc(-c2c(F)cc(Cl)cc2-c2ccc3c(c2)CC[C@@H]3NC(=O)C2(NC(=O)c3nnc(C)o3)CC2)no1
